# System: mildly to moderately active ulcerative colitis
# Test: Randomized, double-dummy, active controlled 8-week clinical trial in ulcerative colitis
# Type: in vivo, human
# Conditions: week 8
# Experimental: 120 patients with colonoscopy-confirmed mildly to moderately active ulcerative colitis were assigned to two groups (60 patients/group). […] All other medications were excluded. The therapeutic effects were assessed biweekly using a scale similar to the partial Mayo Scoring System, and the clinical symptom score reduction (≧50% reduction in symptoms) was calculated. Scores were then retrospectively calculated using the standard partial Mayo scores (PMS), clinical response (improvement ≧2 points or final score of 0) and remission (≦1 PMS score at week 8). Colonoscopies at the beginning and at the end of treatment were rated with a modified Baron score, and biopsies taken during colonoscopy were graded histologically with a scale of 0-3.
smiles,measurement,setting,value
"Nc1ccc(O)c(C(=O)O)c1 [Etiasa, 5-amino-2-hydroxybenzoic acid]",patients with Baron scores reduced by at least two grades,colonoscopy,42%
same,clinical response rate (partial Mayo score improvement ≧2 points or final score of 0),,58%

# Reference: patent US8557308B2, “Andrographis paniculata extract” (Nutrition Science Partners Limited, priority 2007, dated 2013)
